Source: PMC2944806, “HLA Class I Binding of HBZ Determines Outcome in HTLV-1 Infection” (PLoS Pathogens, 2010)

What was measured:
[1] = molecular target: T1, HLA class I molecule A*0201 (Homo sapiens, UniProt P04439, D140Y/D185E/D98H/E176V/E277Q/G131W/G231S/I119V/I121R/I166T/I218V/L300P/L318F/N151K/N90K/P208A/P217A/Q86G/Q94H/R138H/R169H/T345S); format: binding; conditions: REVEAL assay, assembly of peptide-HLA complex by ELISA with conformation-dependent anti-HLA antibody, relative to positive control peptide for that allele, comparable within an allele only
T1 construct: purchased ProImmune Ltd., Oxford, UK

[2] = molecular target: T2, HLA class I molecule B*0702 (Homo sapiens, UniProt P01889); experiment: REVEAL HLA-peptide binding assay, B*0702; parameters: concentration or dose not given beside the values; conditions: assembly of peptide-HLA complex by ELISA with conformation-dependent anti-HLA antibody, relative to positive control peptide for that allele, comparable within an allele only
T2 construct: purchased ProImmune Ltd., Oxford, UK
Procedure: (§1) The REVEAL HLA-peptide binding assay (ProImmune Ltd., Oxford, UK) was used to quantify peptide-HLA binding. For each allele-peptide combination that was tested, assembly of peptide-HLA complexes was quantified by ELISA with a conformation-dependent anti-HLA antibody. Samples of assembling peptide-HLA complexes were taken at a defined time point and snap-frozen in liquid nitrogen prior to analysis. The assembly for each peptide-HLA complex was then compared against a positive control peptide for that allele as the percentage of assembled peptide relative to that control. We selected four HLA class I alleles and 50 HTLV-1 peptides for each allele. The allele choice was based on allele frequency in the Kagoshima database and included 2 A alleles and 2 B alleles as well as alleles for which we knew that the epitope prediction tended to be poor. The 50 HTLV-1 nonamer peptides for each allele were selected to represent a range of predicted binding affinities, from weak to strong binding peptides. They originated from 4 HTLV-1 reference strain proteins: Tax, HBZ, Gag and Polymerase.
(§2) Note the binding score is with respect to a reference good binding peptide for each allele and therefore scores can be compared within an allele but not between alleles.

[3] = molecular target: HLA class I molecule B*3501 (Homo sapiens, UniProt P01889, A329T/A93T/A95T/C349S/D201E/D98Y/E176V/E187L/E204Q/E69T/I218V/K202T/L119I/Q94N/R155S/R180L/S121R/S35A/S48A/T118I/V127L/V306I/V36M/Y140S/Y91F); experiment: REVEAL HLA-peptide binding assay, B*3501; conditions: assembly of peptide-HLA complex by ELISA with conformation-dependent anti-HLA antibody, relative to positive control peptide for that allele, comparable within an allele only
Procedure: as §1, §2

[4] = molecular target: T3, HLA class I molecule A*2402 (Homo sapiens, UniProt P04439, D101N/D140Y/D185E/E176V/E190D/F33S/G103R/G107R/I119L/I121M/I306V/K335N/L105A/L180Q/L300P/N151K/N90K/Q86E/Q94H/R106L/R138H/R89G/T104I/T345S/V100E/W191G/Y123F); format: binding; conditions: REVEAL assay, assembly of peptide-HLA complex by ELISA with conformation-dependent anti-HLA antibody, relative to positive control peptide for that allele, comparable within an allele only
T3 construct: purchased ProImmune Ltd., Oxford, UK

| Sequence | Score (experimentally measured binding affinity, % binding compared to control peptide) [1] [%] | Score (experimentally measured binding affinity, % binding compared to control peptide) [2] [%] | Score (experimentally measured binding affinity, % binding compared to control peptide) [3] [%] | Score (experimentally measured binding affinity, % binding compared to control peptide) [4] [%] |
| --- | --- | --- | --- | --- |
| SLVQLRQAL [HTLV-1 nonamer peptide] | 6.84 | 119.22 | 0 |  |
| MPVFTLSPV [HTLV-1 nonamer peptide from Pol] |  | 142.96 | 114.77 |  |
| RVNEILHIL [HTLV-1 nonamer peptide] | 49.35 | 89.83 | 8.02 |  |
| RPPRGLAAH [HTLV-1 nonamer peptide] |  | 143.59 | 34.86 |  |
| KARRRRRAE [HTLV-1 nonamer peptide] |  | 0 |  |  |
| FPGFGQSLL [HTLV-1 nonamer peptide] |  | 102.99 | 55.31 |  |
| LSPPITWPL [HTLV-1 nonamer peptide] | 34.53 |  | 41.83 | 4.52 |
| STLTTPGLI [HTLV-1 nonamer peptide] | 0.84 |  |  | 0 |
| SARLHRHAL [HTLV-1 nonamer peptide] |  | 236.66 |  |  |
| RDRQRRAEE [HTLV-1 nonamer peptide] |  | 1.54 |  |  |
| NFLQAAYRL [HTLV-1 nonamer peptide] |  |  | 3.16 | 113.8 |
| TPNIPPSFL [HTLV-1 nonamer peptide] |  | 138.52 |  |  |
| LPGLNSRQW [HTLV-1 nonamer peptide] |  | 6.78 |  |  |
| APLPHTSQC [HTLV-1 nonamer peptide] |  | 135.12 |  |  |
| WQMKDLQAI [HTLV-1 nonamer peptide] | 44.68 |  |  | 0 |
| LPVSCPEDL [HTLV-1 nonamer peptide] |  | 6.44 | 74.86 |  |
| KYKNTLYRL [HTLV-1 nonamer peptide] |  |  |  | 124.9 |
| AWQNGLLPF [HTLV-1 nonamer peptide] |  |  |  | 92.6 |
| KISLTTGAL [HTLV-1 nonamer peptide] | 3.54 | 71.26 |  |  |

| Sequence | Score (experimentally measured binding affinity, % binding compared to control peptide) [1] [%] | Score (experimentally measured binding affinity, % binding compared to control peptide) [2] [%] | Score (experimentally measured binding affinity, % binding compared to control peptide) [3] [%] | Score (experimentally measured binding affinity, % binding compared to control peptide) [4] [%] |
| --- | --- | --- | --- | --- |
| PYNPTSSGL [HTLV-1 nonamer peptide] |  |  |  | 104.86 |
| GYPGRVNEI [HTLV-1 nonamer peptide] |  |  |  | 82.68 |
| KYTLQSYGL [HTLV-1 nonamer peptide] |  |  |  | 104.78 |
| RGRLRRGPP [HTLV-1 nonamer peptide] |  | 1.21 |  |  |
| IALETPARI [HTLV-1 nonamer peptide] | 17.01 |  |  | 9.68 |
| QPARAPVTL [HTLV-1 nonamer peptide] |  | 135.43 | 55.56 |  |
| IWQGDITHF [HTLV-1 nonamer peptide] |  |  |  | 64.83 |
| DLMGEVNYW [HTLV-1 nonamer peptide] |  |  |  | 62.28 |
| AASGLFRCL [HTLV-1 nonamer peptide] |  | 107.28 | 7.33 |  |
| RAEKKAADV [HTLV-1 nonamer peptide] |  | 2.78 |  |  |
| AAHHWLNFL [HTLV-1 nonamer peptide] | 5.86 | 27.59 | 0 |  |
| LPVMHPHGA [HTLV-1 nonamer peptide] |  | 9.38 |  |  |
| LPFHSTLTT [HTLV-1 nonamer peptide] |  | 97.77 | 102.24 |  |
| YWQGRLEAM [HTLV-1 nonamer peptide] |  |  | 7.1 | 40.32 |
| LEAERRKLL [HTLV-1 nonamer peptide] |  | 1.08 |  |  |
| WQGRLEAMW [HTLV-1 nonamer peptide] |  |  |  | 2.54 |
| LVLQSSSFI [HTLV-1 nonamer peptide] | 41.33 | 1.65 |  |  |
| ICPINYSLL [HTLV-1 nonamer peptide] |  |  |  | 69.19 |
| QYLCSSLVA [HTLV-1 nonamer peptide] |  |  |  | 4.85 |

| Sequence | Score (experimentally measured binding affinity, % binding compared to control peptide) [1] [%] | Score (experimentally measured binding affinity, % binding compared to control peptide) [2] [%] | Score (experimentally measured binding affinity, % binding compared to control peptide) [3] [%] | Score (experimentally measured binding affinity, % binding compared to control peptide) [4] [%] |
| --- | --- | --- | --- | --- |
| SYGLLCQTI [HTLV-1 nonamer peptide] |  |  |  | 114.37 |
| DPISRLNAL [HTLV-1 nonamer peptide] |  | 115.84 | 67.38 |  |
| IFSRSASPI [HTLV-1 nonamer peptide] |  |  |  | 62.41 |
| VPYKRIEEL [HTLV-1 nonamer peptide] |  | 133.31 |  |  |
| VPIRSRWAL [HTLV-1 nonamer peptide] |  | 125.64 |  |  |
| NYSLLASLL [HTLV-1 nonamer peptide] |  |  |  | 105.08 |
| QPRPPPGPC [HTLV-1 nonamer peptide] |  | 138.82 |  |  |
| HPGQLGAFL [HTLV-1 nonamer peptide] |  | 60.82 | 34.24 |  |
| GYTRQLEGE [HTLV-1 nonamer peptide] |  |  |  | 35.37 |
| RPAPPPPSS [HTLV-1 nonamer peptide] |  | 93.08 |  |  |
| YPGRVNEIL [HTLV-1 nonamer peptide] |  | 158.86 | 109.69 |  |
| RRRAEKKAA [HTLV-1 nonamer peptide] |  | 0 |  |  |
| PYHAFVERL [HTLV-1 nonamer peptide] |  |  |  | 113.04 |
| PPNHRPWQM [HTLV-1 nonamer peptide] |  | 103.11 |  |  |
| TTPGLIWTF [HTLV-1 nonamer peptide] |  |  |  | 215.15 |
| HQLKKFLKI [HTLV-1 nonamer peptide] | 0 |  |  | 46.49 |
| VSCPEDLLV [HTLV-1 nonamer peptide] |  |  |  | 9.6 |
| TPKDKTKVL [HTLV-1 nonamer peptide from Gag] |  | 113.7 |  |  |
